Among the data in US11046658B2, “Aminopyrazine derivatives as PI3K-γ inhibitors” (Incyte Corporation, priority 2018, dated 2021) are IC50 values, retold here.

Counter-ions that a name gives are not always drawn.

The subject of the first assay is Phosphorylated Ribosomal Protein S6 (RPS6) in THP-1 cells. The experiment in a line: THP-1 RPS6 ELISA Assay. The class given is cell-based, Human. The following applies: Homo sapiens, THP-1, read-out: PI3Kγ_THP1_RPS6_ELISA IC50 (nM). A digest of the protocol:
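Cells serum-starved overnight, pre-incubated with compounds 2 h at 37° C, then stimulated with 10 nM MCP-1 for 15 min. Lysates assayed for phospho-RPS6 by ELISA read at 450 nm. IC50 from percent inhibition vs log concentration curve fit.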
With `Cc1ccc(C(O)(C(N)=O)C(F)(F)F)cc1-c1cnc(N)c(N2CCN(C(=O)c3ccco3)CC2)n1` (centres unmarked) [Example 127, 2-(3-(5-amino-6-(4-(furan-2-carbonyl)piperazin-1-yl)pyrazin-2-yl)-4-methylphenyl)-3,3,3-trifluoro-2-hydroxypropanamide trifluoroacetate], the IC50 (commonly the concentration that gives 50% inhibition) is below 100 nM.

The same assay, now with this note: Homo sapiens; Table A1; THP-1 cells, 10 nM MCP-1; read-out: PI3Kγ_THP1_RPS6_ELISA IC50.
On to `Cc1ccc(C(O)(C(N)=O)C(F)F)cc1-c1cnc(N)c(C(=O)NC2CCOCC2)n1` (centres unmarked) [Example 36, 3-amino-6-(5-(1-amino-3,3-difluoro-2-hydroxy-1-oxopropan-2-yl)-2-methylphenyl)-N-(tetrahydro-2H-pyran-4-yl)pyrazine-2-carboxamide], for which the IC50 was below 100 nM.
Same read-out and setting: under `Cc1ccc(C(O)(C(N)=O)C(F)F)cc1-c1cnc(N)c(C(=O)NC(C)(C)CO)n1` (centres unmarked) [Example 35, 3-amino-6-(5-(1-amino-3,3-difluoro-2-hydroxy-1-oxopropan-2-yl)-2-methylphenyl)-N-(1-hydroxy-2-methylpropan-2-yl)pyrazine-2-carboxamide] stands below 100 nM; under `Cc1ccc(C(O)(C(N)=O)C(F)(F)F)cc1-c1cnc(N)c(C(=O)NC(C)(C)CO)n1` (centres unmarked) [Example 13, 3-Amino-6-(5-(3-amino-1,1,1-trifluoro-2-hydroxy-3-oxopropan-2-yl)-2-methylphenyl)-N-(1-hydroxy-2-methylpropan-2-yl)pyrazine-2-carboxamide], below 100 nM; under `Cc1ccc(C(O)(C(N)=O)C(F)(F)F)cc1-c1cnc(N)c(C(=O)NCC(O)C(F)(F)F)n1` (single isomer, unassigned) [Example 43A, 3-amino-6-(5-(3-amino-1,1,1-trifluoro-2-hydroxy-3-oxopropan-2-yl)-2-methylphenyl)-N-(3,3,3-trifluoro-2-hydroxypropyl)pyrazine-2-carboxamide], below 100 nM.
The same measure, in the same setting: under `CCNC(=O)c1nc(-c2cc(C(O)(C(N)=O)C(F)F)ccc2C)cnc1N` (centres unmarked) [Example 32, 3-amino-6-(5-(1-amino-3,3-difluoro-2-hydroxy-1-oxopropan-2-yl)-2-methylphenyl)-N-ethylpyrazine-2-carboxamide] stands below 100 nM.
Still for that read-out and setting: as for `Cc1ccc(C(O)(CNC(=O)CC#N)C(F)(F)F)cc1-c1cnc(N)c(C(=O)NC(C)C)n1` (centres unmarked) [Example 42, 3-Amino-6-(5-(3-(2-cyanoacetamido)-1,1,1-trifluoro-2-hydroxypropan-2-yl)-2-methylphenyl)-N-isopropylpyrazine-2-carboxamide trifluoroacetate], the figure is below 500 nM.
Regarding `COC(C)(C)CNC(=O)c1nc(-c2cc(C(O)(C(N)=O)C(F)(F)F)ccc2C)cnc1N` (centres unmarked) [Example 21, 3-amino-6-(5-(3-amino-1,1,1-trifluoro-2-hydroxy-3-oxopropan-2-yl)-2-methylphenyl)-N-(2-methoxy-2-methylpropyl)pyrazine-2-carboxamide trifluoroacetate], the IC50 was below 100 nM.
As to `Cc1ccc(C(O)(C(N)=O)C(F)(F)F)cc1-c1cnc(N)c(C(=O)NCC(F)(F)F)n1` (centres unmarked) [Example 38, 3-Amino-6-(5-(3-amino-1,1,1-trifluoro-2-hydroxy-3-oxopropan-2-yl)-2-methylphenyl)-N-(2,2,2-trifluoroethyl)pyrazine-2-carboxamide trifluoroacetate], the IC50 was below 100 nM.
Still for that read-out and setting: as for `Cc1ccc(C(O)(C(N)=O)C(F)F)cc1-c1cnc(N)c(C(=O)NC2CCC(F)(F)CC2)n1` (centres unmarked) [Example 34, 3-amino-6-(5-(1-amino-3,3-difluoro-2-hydroxy-1-oxopropan-2-yl)-2-methylphenyl)-N-(4,4-difluorocyclohexyl)pyrazine-2-carboxamide], the figure is below 100 nM.
The same measure, in the same setting: under `Cc1ccc(C(O)(C(N)=O)C(F)(F)F)cc1-c1cnc(N)c(C(=O)N[C@@H](C)CO)n1` (stereo partly drawn) [Example 12, 3-amino-6-(5-(3-amino-1,1,1-trifluoro-2-hydroxy-3-oxopropan-2-yl)-2-methylphenyl)-N-((S)-1-hydroxypropan-2-yl)pyrazine-2-carboxamide] stands below 100 nM.

The same assay, now with this note: Homo sapiens; Table A2; THP-1 cells, 10 nM MCP-1; read-out: PI3Kγ_THP1_RPS6_ELISA IC50.
Turning to `Cc1ccc(C(O)(C(N)=O)C(F)(F)F)cc1-c1cnc(N)c(C#Cc2cnccn2)n1` (centres unmarked) [Example 57, 2-(3-(5-amino-6-(pyrazin-2-ylethynyl)pyrazin-2-yl)-4-methylphenyl)-3,3,3-trifluoro-2-hydroxypropanamide], the IC50 was below 100 nM.
As to `Cc1ccc(C(O)(C(N)=O)C(F)(F)F)cc1-c1cnc(N)c(C#CC(C)C)n1` (centres unmarked) [Example 49, 2-(3-(5-amino-6-(3-methylbut-1-ynyl)pyrazin-2-yl)-4-methylphenyl)-3,3,3-trifluoro-2-hydroxypropanamide], the IC50 is below 500 nM.
On the same count and under the same terms, as for `Cc1ccc(C(O)(C(N)=O)C(F)(F)F)cc1-c1cnc(N)c(C#CC(C)(O)C(C)C)n1` (centres unmarked) [Example 62, 2-(3-(5-amino-6-(3-hydroxy-3,4-dimethylpent-1-ynyl)pyrazin-2-yl)-4-methylphenyl)-3,3,3-trifluoro-2-hydroxypropanamide], the figure is below 100 nM; as for `Cc1ccc(C(O)(C(N)=O)C(F)(F)F)cc1-c1cnc(N)c(C#CC2CCOCC2)n1` (centres unmarked) [Example 63, 2-(3-(5-amino-6-((tetrahydro-2H-pyran-4-yl)ethynyl)pyrazin-2-yl)-4-methylphenyl)-3,3,3-trifluoro-2-hydroxypropanamide], below 100 nM.
Still for that read-out and setting: under `Cc1ccc(C(O)(C(N)=O)C(F)(F)F)cc1-c1cnc(N)c(C#Cc2cncn2C)n1` (centres unmarked) [Example 53, 2-(3-(5-amino-6-((1-methyl-1H-imidazol-5-yl)ethynyl)pyrazin-2-yl)-4-methylphenyl)-3,3,3-trifluoro-2-hydroxypropanamide] stands below 500 nM.
Turning to `Cc1ccc(C(O)(C(N)=O)C(F)(F)F)cc1-c1cnc(N)c(C#CC2(O)CCN(C)C2=O)n1` (centres unmarked) [Example 65, 2-(3-(5-amino-6-((3-hydroxy-1-methyl-2-oxopyrrolidin-3-yl)ethynyl)pyrazin-2-yl)-4-methylphenyl)-3,3,3-trifluoro-2-], the IC50 is below 100 nM.

Staying with this assay, now noted: Homo sapiens; Table A3; THP-1 cells, 10 nM MCP-1; read-out: PI3Kγ_THP1_RPS6_ELISA IC50.
As for `Cc1ccc(C(O)(C(N)=O)C(F)F)cc1-c1cnc(N)c(-c2ccnn2C)n1` (centres unmarked) [Example 98, 2-(3-(5-Amino-6-(1-methyl-1H-pyrazol-5-yl)pyrazin-2-yl)-4-methylphenyl)-3,3-difluoro-2-hydroxypropanamide], the IC50 was below 100 nM.
Same read-out and setting: under `Cc1ccc(C(O)(CNC=O)C(F)(F)F)cc1-c1cnc(N)c(-c2cnc(C3CC3)s2)n1` (centres unmarked) [Example 102, N-(2-(3-(5-amino-6-(2-cyclopropylthiazol-5-yl)pyrazin-2-yl)-4-methylphenyl)-3,3,3-trifluoro-2-hydroxypropyl)formamide trifluoroacetate] stands below 100 nM.
The same measure, in the same setting: under `Cc1ccc(C(O)(C(N)=O)C(F)(F)F)cc1-c1cnc(N)c(C(=O)Nc2ccnn2C)n1` (centres unmarked) [Example 106, 3-amino-6-(5-(3-amino-1,1,1-trifluoro-2-hydroxy-3-oxopropan-2-yl)-2-methylphenyl)-N-(1-methyl-1H-pyrazol-5-yl)pyrazine-2-carboxamide trifluoroacetate] stands below 100 nM.

Staying with this assay, now noted: Homo sapiens; Table A4; THP-1 cells, 10 nM MCP-1; cells given with + symbol; read-out: PI3Kγ_THP1_RPS6_ELISA IC50.
`Cc1ccc([C@@](O)(C(N)=O)C(F)(F)F)cc1-c1cnc(N)c(N2CCN(C(=O)C3CC3)CC2)n1` [Example 115, (R)-2-(3-(5-amino-6-(4-(cyclopropanecarbonyl)piperazin-1-yl)pyrazin-2-yl)-4-methylphenyl)-3,3,3-trifluoro-2-hydroxypropanamide trifluoroacetate]: the IC50 was below 100 nM.
Same read-out and setting: as for `Cc1ccc(C(O)(C(N)=O)C(F)(F)F)cc1-c1cnc(N)c(N2CCN(c3cncs3)CC2)n1` (centres unmarked) [Example 120, 2-(3-(5-amino-6-(4-(thiazol-5-yl)piperazin-1-yl)pyrazin-2-yl)-4-methylphenyl)-3,3,3-trifluoro-2-hydroxypropanamide trifluoroacetate], the figure is below 100 nM.

Still in this assay, the particulars now being: Table A1; THP-1 cells, 10 nM MCP-1; read-out: PI3Kγ_THP1_RPS6_ELISA IC50.
`Cc1ccc(C(O)(C(N)=O)C(F)(F)F)cc1-c1cnc(N)c(C(=O)NCC(O)C(F)(F)F)n1` (single isomer, unassigned) [Example 43B, 3-amino-6-(5-(3-amino-1,1,1-trifluoro-2-hydroxy-3-oxopropan-2-yl)-2-methylphenyl)-N-(3,3,3-trifluoro-2-hydroxypropyl)pyrazine-2-carboxamide]: the IC50 was below 100 nM.
